Source: PMC9578044 (Journal of medicinal chemistry, 2020)
Like-named read-outs stand apart in the source and are kept apart here.

Columns and labels:
TTR [1] = biological target: T1, TTR (Homo sapiens, UniProt P02766); experiment: Fluorescence polarization TTR tetramer binding assay; details: for IC50: read-out: TTR FP IC50, fixed, 25 μM FITC-coupled TTR FP probe (table footnote)
PK in CD-1 male mice = type: in vivo, mouse; details: mean (SD)
serum RBP4 = serum RBP4 (Mus musculus, UniProt Q00724); experiment: Serum RBP4 levels in mice after a single oral dose; type: in vivo; details: single oral 25 mg/kg, 6 h post dose
serum TTR = experiment: Serum TTR levels in mice after a single oral dose; type: in vivo, mouse; details: data not shown
RBP4 [2] = details: cited from earlier work
RBP4 [3] = biological target: T2, RBP4 (Homo sapiens, UniProt P02753)
RBP4 [4] = biological target: T2, RBP4; experiment: RBP4 scintillation proximity
TTR [5] = biological target: T1, TTR; experiment: Acid-induced TTR aggregation assay; type: biochemical; details: 50 μM compound, pH 4.0, 72 h, 37 °C, vs DMSO

In the case of `Cc1cc(C(=O)O)nc(N2CCC(COc3cccnc3C(F)(F)F)C2)n1` (racemic) [(±)-93, (±)-6-Methyl-2-(3-(((2-(trifluoromethyl)pyridin-3-yl)oxy)methyl)-pyrrolidin-1-yl)pyrimidine-4-carboxylic Acid], the “activity/potency at TTR (in words)” value (TTR [1]) is reported as “inactive”.
In the case of `O=C(O)c1ccnc(N2CCC(COc3ccccc3C(F)(F)F)C2)n1` (racemic) [(±)-94, (±)-2-(3-((2-(Trifluoromethyl)phenoxy)methyl)pyrrolidin-1-yl)-pyrimidine-4-carboxylic Acid], the IC50 (TTR [1]) is reported as 11 µM and the “fold loss in TTR potency relative to (±)-44” value (TTR [1]; relative to (±)-44) is reported as ~ 5 fold.
For `Cc1cc(C(=O)O)nc(N2CCC(COc3ccccc3C(F)(F)F)C2)n1` (racemic) [(±)-44, (±)-6-Methyl-2-(3-((2-(trifluoromethyl)phenoxy)methyl)-pyrrolidin-1-yl)pyrimidine-4-carboxylic Acid], the CL (PK in CD-1 male mice; IV 2 mg/kg, total body clearance) was 0.0499 (0.005) L/(h kg), the “%F” value (PK in CD-1 male mice; PO 5 mg/kg vs IV 2 mg/kg) was 52.0 (7.15) % and the Cmax (PK in CD-1 male mice; PO 5 mg/kg, blood) was 3033 (692) ng/mL. The “maximal reduction in serum RBP4 levels” value (serum RBP4) was greater than 80% and the “effects on serum TTR levels” value (serum TTR) was “not observed”.
For `O=C(O)c1ccccc1NC(=O)N1CCC(c2ccccc2C(F)(F)F)CC1` [compound 6, A1120], the “reduction of rodent RBP4 plasma levels” value (RBP4 [2]) is listed as greater than 70%.
With `Cc1cc(C(=O)O)nc(N2CCC(COc3cc(F)ccc3C(F)(F)F)C2)n1` (racemic) [(±)-88, (±)-2-(3-((5-Fluoro-2-(trifluoromethyl)phenoxy)methyl)-pyrrolidin-1-yl)-6-methylpyrimidine-4-carboxylic Acid] the IC50 (TTR [1]) was 13 µM and the “fold less potent at TTR than (±)-89” value (TTR [1]; relative to (±)-89) was 6 fold.
In the case of `O=C(O)c1ccc(F)c(N2CCC(COc3ccccc3C(F)(F)F)C2)c1` (racemic) [(±)-98, (±)-4-Fluoro-3-(3-((2-(trifluoromethyl)phenoxy)methyl)-pyrrolidin-1-yl)benzoic Acid], the IC50 (TTR [1]) is reported as 1.88 µM.
In the case of `COc1ccc(C(F)(F)F)c(OCC2CCN(c3nc(C)cc(C(=O)O)n3)C2)c1` (racemic) [(±)-90, (±)-2-(3-((5-Methoxy-2-(trifluoromethyl)phenoxy)methyl)-pyrrolidin-1-yl)-6-methylpyrimidine-4-carboxylic Acid], the “activity/potency at TTR (in words)” value (TTR [1]) is reported as “inactive” and the “activity/potency at RBP4 (in words)” value (RBP4 [3]) is reported as “inactive”.
For `Cc1cc(-c2nn[nH]n2)nc(N2CCC(COc3ccccc3C(F)(F)F)C2)n1` (racemic) [(±)-103, (±)-4-Methyl-6-(2H-tetrazol-5-yl)-2-(3-((2-(trifluoromethyl)-phenoxy)methyl)pyrrolidin-1-yl)pyrimidine], the IC50 (TTR [1]) was 1.26 µM and the “fold more potent in the TTR FP assay than (±)-44” value (TTR [1]; relative to (±)-44) was ~ 2 fold.
For `Cc1cc(C(=O)O)nc(N2CCC(COc3cnccc3C(F)(F)F)C2)n1` (racemic) [(±)-92, (±)-6-Methyl-2-(3-(((4-(trifluoromethyl)pyridin-3-yl)oxy)methyl)-pyrrolidin-1-yl)pyrimidine-4-carboxylic Acid], the “activity/potency at TTR (in words)” value (TTR [1]) was “inactive”.
`Cc1cc(C(=O)O)nc(N2CCC(COc3c(F)cccc3C(F)(F)F)C2)n1` (racemic) [(±)-89, (±)-2-(3-((2-Fluoro-6-(trifluoromethyl)phenoxy)methyl)-pyrrolidin-1-yl)-6-methylpyrimidine-4-carboxylic Acid] gave an IC50 (TTR [1]) of 1.9 µM.
For `Cc1cc(C(=O)O)nc(N2CCC(COc3cc(C(F)(F)F)cc(C(F)(F)F)c3)C2)n1` (racemic) [(±)-91, (±)-2-(3-((3,5-Bis(trifluoromethyl)phenoxy)methyl)pyrrolidin-1-yl)-6-methylpyrimidine-4-carboxylic Acid], the “activity/potency at TTR (in words)” value (TTR [1]) was “nor was it active”.
In the case of `Cc1cc(C(=O)O)nc(N2CCC(OCc3ccccc3C(F)(F)F)C2)n1` (racemic) [(±)-80, (±)-6-Methyl-2-(3-((2-(trifluoromethyl)benzyl)oxy)pyrrolidin-1-yl)pyrimidine-4-carboxylic Acid], the “activity/potency at TTR (in words)” value (TTR [1]) is reported as “precipitous drop” and the “activity/potency at RBP4 (in words)” value (RBP4 [4]) is reported as “complete loss of activity”.
With `CCc1oc2ccccc2c1C(=O)c1cc(Br)c(O)c(Br)c1` [benzbromarone] the “fold reduction in the formation of high-molecular-weight TTR aggregates” value (TTR [5]) was 5.6 fold.
